According to US20230399342A1 (Incyte Corporation, priority 2022, published 2023):

What was measured:
DGKζ = DGKζ (Homo sapiens (Human), UniProt Q13574); assay: In vitro DGKζ inhibition assay (ADP-Glo); assay type: biochemical; conditions: His-tagged human recombinant enzyme, 0.4 nM DGK, 30 μM ATP, 20 μM DLG, 90 minute incubation
How it was run: (§1)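 His-tagged human DGKα (0.1 nM, 50 μM ATP) or DGKζ (0.4 nM, 30 μM ATP), each with 20 μM DLG, in Tris pH 7.5 buffer with CHAPS, Mg2+, Ca2+.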

DGKα = DGKα (Homo sapiens (Human), UniProt P23743); assay: In vitro DGKα inhibition assay (ADP-Glo); assay type: biochemical; conditions: His-tagged human recombinant enzyme, 0.1 nM DGKα, 50 μM ATP, 20 μM DLG, 90 minute incubation
Chain of DGKα (P23743 whole entry): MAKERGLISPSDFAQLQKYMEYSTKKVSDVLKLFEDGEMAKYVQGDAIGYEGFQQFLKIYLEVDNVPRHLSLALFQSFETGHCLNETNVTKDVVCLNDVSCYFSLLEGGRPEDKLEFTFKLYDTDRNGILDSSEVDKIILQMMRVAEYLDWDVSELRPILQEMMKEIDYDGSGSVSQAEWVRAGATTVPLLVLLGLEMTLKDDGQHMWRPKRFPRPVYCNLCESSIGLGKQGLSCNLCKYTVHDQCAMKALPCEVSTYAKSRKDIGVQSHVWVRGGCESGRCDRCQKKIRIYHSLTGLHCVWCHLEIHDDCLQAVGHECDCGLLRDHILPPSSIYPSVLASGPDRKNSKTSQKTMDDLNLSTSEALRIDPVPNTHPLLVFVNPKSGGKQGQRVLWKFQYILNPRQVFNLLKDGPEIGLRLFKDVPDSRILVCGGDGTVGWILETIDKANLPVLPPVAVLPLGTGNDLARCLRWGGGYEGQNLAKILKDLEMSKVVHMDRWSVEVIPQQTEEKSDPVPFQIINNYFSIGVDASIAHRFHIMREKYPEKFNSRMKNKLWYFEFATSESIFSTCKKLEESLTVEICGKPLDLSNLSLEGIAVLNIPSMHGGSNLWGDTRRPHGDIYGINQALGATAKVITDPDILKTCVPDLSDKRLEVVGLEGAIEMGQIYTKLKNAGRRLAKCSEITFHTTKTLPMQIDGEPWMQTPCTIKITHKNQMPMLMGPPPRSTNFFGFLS
How it was run: as §1

Chain of DGKζ (Q13574 whole entry): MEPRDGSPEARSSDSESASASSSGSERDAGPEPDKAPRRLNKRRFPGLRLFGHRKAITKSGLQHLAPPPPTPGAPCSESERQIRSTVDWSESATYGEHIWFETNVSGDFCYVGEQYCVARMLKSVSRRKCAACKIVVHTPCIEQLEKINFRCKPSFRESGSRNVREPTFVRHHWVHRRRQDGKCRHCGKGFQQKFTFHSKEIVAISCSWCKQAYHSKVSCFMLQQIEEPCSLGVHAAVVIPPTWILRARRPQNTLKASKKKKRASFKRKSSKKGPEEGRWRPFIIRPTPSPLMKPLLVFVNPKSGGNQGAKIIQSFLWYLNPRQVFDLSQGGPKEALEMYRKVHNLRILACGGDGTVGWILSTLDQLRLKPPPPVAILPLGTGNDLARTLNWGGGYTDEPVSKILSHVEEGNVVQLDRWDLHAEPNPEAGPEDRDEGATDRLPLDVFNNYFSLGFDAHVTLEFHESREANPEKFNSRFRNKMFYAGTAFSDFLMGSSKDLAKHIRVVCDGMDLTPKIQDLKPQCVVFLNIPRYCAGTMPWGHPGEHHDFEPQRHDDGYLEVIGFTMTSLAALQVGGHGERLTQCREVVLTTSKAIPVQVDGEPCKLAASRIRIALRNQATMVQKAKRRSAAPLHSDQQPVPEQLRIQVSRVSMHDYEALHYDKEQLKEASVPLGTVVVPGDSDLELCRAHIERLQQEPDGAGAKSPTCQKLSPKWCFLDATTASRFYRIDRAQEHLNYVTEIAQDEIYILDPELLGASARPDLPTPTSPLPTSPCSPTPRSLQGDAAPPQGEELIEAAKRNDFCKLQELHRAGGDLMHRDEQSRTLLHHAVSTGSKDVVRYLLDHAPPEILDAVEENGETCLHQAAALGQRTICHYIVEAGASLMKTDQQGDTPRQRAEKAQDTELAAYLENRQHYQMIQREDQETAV

Row | Structure (SMILES) | IC50 (DGKζ) [nM] | IC50 (DGKα) [nM]
1 | C[C@@H]1CN(c2nc3nncn3c3c2ncn3CCN(C)C)[C@@H](C)CN1C(c1ccc(F)cc1)c1ccc(F)cc1 [Example 28, 2-(4-((2S,5R)-4-(Bis(4-fluorophenyl)methyl)-2,5-dimethylpiperazin-1-yl)-1H-[1,2,4]triazolo[3,4-b]purin-1-yl)-N,N-dimethylethan-1-amine] | ≤ 20 | ≤ 20
2 | CC(C)[C@H](c1ccc(Cl)cc1)N1C[C@H](C)N(c2nc3nncn3c3c2ncn3CCN(C)C)C[C@H]1C [Example 91, 2-(4-((2S,5R)-4-((R)-1-(4-chlorophenyl)-2-methylpropyl)-2,5-dimethylpiperazin-1-yl)-1H-[1,2,4]triazolo[3,4-b]purin-1-yl)-N,N-dimethylethan-1-amine] | 20 to 200 | ≤ 20
3 | Cc1nn(C)c2c1c(N1C[C@@H](C)N(C(c3ccc(F)cc3)c3ccc(F)cc3)C[C@@H]1C)cc1nncn12 [Example 12, 4-((2S,5R)-4-(Bis(4-fluorophenyl)methyl)-2,5-dimethylpiperazin-1-yl)-1,3-dimethyl-1H-pyrazolo[4,3-e][1,2,4]triazolo[4,3-a]pyridine] | > 2000 | ≤ 20
4 | Cc1nc2c(N3C[C@@H](C)N([C@@H](c4ccc(Cl)cc4)C(C)C)C[C@@H]3C)nc3nncn3c2n1C[C@@H]1CCCO1 [Example 89, 4-((2S,5R)-4-((R)-1-(4-chlorophenyl)-2-methylpropyl)-2,5-dimethylpiperazin-1-yl)-2-methyl-1-(((S)-tetrahydrofuran-2-yl)methyl)-1H-[1,2,4]triazolo[3,4-b]purine] | ≤ 20 | ≤ 20
5 | Cc1nc2c(N3C[C@@H]([C@@H](C)O)N(C(c4ccc(F)cc4)c4ccc(F)cc4)C[C@@H]3C)nc3nncn3c2n1C[C@@H]1CCCO1 [Example 123, (R)-1-((2S,5S)-1-(Bis(4-fluorophenyl)methyl)-5-methyl-4-(2-methyl-1-(((S)-tetrahydrofuran-2-yl)methyl)-1H-[1,2,4]triazolo[3,4-b]purin-4-yl)piperazin-2-yl)ethan-1-ol] | ≤ 20 | ≤ 20
6 | Cc1nc2c(N3C[C@@H](C)N([C@H](c4ccc(F)c(F)c4)C4CC(F)(F)C4)C[C@@H]3C)nc3nncn3c2n1C[C@@H]1CCCO1 [Example 46, 4-((2S,5R)-4-((S)-(3,3-Difluorocyclobutyl)(3,4-difluorophenyl)methyl)-2,5-dimethylpiperazin-1-yl)-2-methyl-1-(((S)-tetrahydrofuran-2-yl)methyl)-1H-[1,2,4]triazolo[3,4-b]purine] | ≤ 20 | ≤ 20
7 | COC[C@@H]1CN(c2nc3nncn3c3scnc23)[C@@H](C)CN1C(c1ccc(F)cc1)c1ccc(F)cc1 [Example 13, 4-((2S,5S)-4-(Bis(4-fluorophenyl)methyl)-5-(methoxymethyl)-2-methylpiperazin-1-yl)thiazolo[4,5-e][1,2,4]triazolo[4,3-a]pyrimidine] | 20 to 200 | ≤ 20
8 | COc1ccc([C@H](c2ccc(C(F)F)cc2)N2C[C@H](C)N(c3nc4nncn4c4c3nc(C)n4C[C@@H]3CCCO3)C[C@H]2C)cc1 [Example 92, 4-((2S,5R)-4-((4-(Difluoromethyl)phenyl)(4-methoxyphenyl)methyl)-2,5-dimethylpiperazin-1-yl)-2-methyl-1-(((S)-tetrahydrofuran-2-yl)methyl)-1H-[1,2,4]triazolo[3,4-b]purine] | ≤ 20 | ≤ 20
9 | C[C@@H]1CN(c2nc3nncn3c3c2ncn3C[C@@H]2CCCO2)[C@@H](C)CN1C(c1ccc(Cl)cc1)c1ccc(Cl)cc1 [Example 93, 4-((2S,5R)-4-(Bis(4-chlorophenyl)methyl)-2,5-dimethylpiperazin-1-yl)-1-(((S)-tetrahydrofuran-2-yl)methyl)-1H-[1,2,4]triazolo[3,4-b]purine] | ≤ 20 | ≤ 20

Continued, values first:

Row | IC50 (DGKζ) [nM] | IC50 (DGKα) [nM] | Structure (SMILES)
10 | ≤ 20 | ≤ 20 | CC[C@H]1CN(C(c2ccc(F)cc2)c2ccc(F)cc2)[C@H](CC)CN1c1nc2nncn2c2c1nnn2C[C@H]1CCCO1 [Example 33, 4-((2S,5R)-4-(Bis(4-fluorophenyl)methyl)-2,5-diethylpiperazin-1-yl)-1-(((R)-tetrahydrofuran-2-yl)methyl)-1H-[1,2,3]triazolo[4,5-e][1,2,4]triazolo[4,3-a]pyrimidine]
11 | ≤ 20 | ≤ 20 | Cc1nc2c(N3C[C@@H](C)N(C(c4ccc(Cl)cc4)c4ccc(F)c(Cl)c4)C[C@@H]3C)nc3nncn3c2n1C[C@@H]1CCCO1 (single isomer, unassigned) [Example 140]
12 | ≤ 20 | ≤ 20 | Cc1nc2c(N3C[C@@H](CO)N(C(c4ccc(C(F)(F)F)cc4)C4CC(F)(F)C4)C[C@@H]3C)nc3nncn3c2n1C[C@@H]1CCCO1 (stereo partly drawn) [Example 122, ((2S,5S)-1-((3,3-Difluorocyclobutyl)(4-(trifluoromethyl)phenyl)methyl)-5-methyl-4-(2-methyl-1-(((S)-tetrahydrofuran-2-yl)methyl)-1H-[1,2,4]triazolo[3,4-b]purin-4-yl)piperazin-2-yl)methanol]
13 | ≤ 20 | ≤ 20 | C[C@@H]1CN(c2nc3nncn3c3c2ncn3CCN(C)C)[C@@H](C)CN1C(c1ccc(F)c(Cl)c1)[C@H]1C[C@H](C(F)(F)F)C1 (stereo partly drawn) [Example 114, 2-(4-((2S,5R)-4-((3-chloro-4-fluorophenyl)((trans)-3-(trifluoromethyl)cyclobutyl)methyl)-2,5-dimethylpiperazin-1-yl)-1H-[1,2,4]triazolo[3,4-b]purin-1-yl)-N,N-dimethylethan-1-amine]
14 | ≤ 20 | ≤ 20 | CC[C@@H]1CN(c2nc3nncn3c3c2nc(C)n3C[C@@H]2CCCO2)[C@@H](C)CN1C(c1ccc(F)cc1)c1ccc(F)cc1 [Example 20, 4-((2S,5R)-4-(Bis(4-fluorophenyl)methyl)-5-ethyl-2-methylpiperazin-1-yl)-2-methyl-1-(((S)-tetrahydrofuran-2-yl)methyl)-1H-[1,2,4]triazolo[3,4-b]purine]
15 | ≤ 20 | ≤ 20 | Cc1nc2c(N3C[C@@H](C)N(C(c4cc(F)c(C(F)(F)F)cc4F)C4CC(F)(F)C4)C[C@@H]3C)nc3nncn3c2n1C[C@@H]1CCCO1 (stereo partly drawn) [Example 56, 4-((2S,5R)-4-((2,5-Difluoro-4-(trifluoromethyl)phenyl)(3,3-difluorocyclobutyl)methyl)-2,5-dimethylpiperazin-1-yl)-2-methyl-1-(((S)-tetrahydrofuran-2-yl)methyl)-1H-[1,2,4]triazolo[3,4-b]purine]
16 | ≤ 20 | ≤ 20 | Cc1nc2c(N3C[C@@H](C)N(C(c4ccc(Br)c(F)c4)C4CC(F)(F)C4)C[C@@H]3C)nc3nncn3c2n1C[C@@H]1CCCO1 (stereo partly drawn) [Example 63, 4-((2S,5R)-4-((4-Bromo-3-fluorophenyl)(3,3-difluorocyclobutyl)methyl)-2,5-dimethylpiperazin-1-yl)-2-methyl-1-(((S)-tetrahydrofuran-2-yl)methyl)-1H-[1,2,4]triazolo[3,4-b]purine]
17 | ≤ 20 | ≤ 20 | CC[C@H]1CN(C(c2ccc(F)cc2)c2ccc(F)cc2)[C@H](CC)CN1c1nc2nncn2c2c1nnn2C[C@@H]1CCCO1 [Example 31, 4-((2S,5R)-4-(Bis(4-fluorophenyl)methyl)-2,5-diethylpiperazin-1-yl)-1-(((S)-tetrahydrofuran-2-yl)methyl)-1H-[1,2,3]triazolo[4,5-e][1,2,4]triazolo[4,3-a]pyrimidine]
18 | ≤ 20 | ≤ 20 | COc1cccc([C@@H](C(C)C)N2C[C@H](C)N(c3nc4nncn4c4c3nc(C)n4C[C@@H]3CCCO3)C[C@H]2C)c1 [Example 99, 4-((2S,5R)-4-((R)-1-(3-methoxyphenyl)-2-methylpropyl)-2,5-dimethylpiperazin-1-yl)-2-methyl-1-(((S)-tetrahydrofuran-2-yl)methyl)-1H-[1,2,4]triazolo[3,4-b]purine]
